Results as given in ChEMBL document CHEMBL5108011, “Design, synthesis and antitumor evaluation of ATP dual-mimic 2,4-diarylaminopyrimidine and aminoindazole conjugates as potent anaplastic lymphoma kinase inhibitors” (Eur J Med Chem, 2022).
Calls of active or inactive are those of the source. No cut-off for these calls is given here.

Assays:
[1] = target: ALK tyrosine kinase receptor (Homo sapiens, UniProt Q9UM73); assay: Inhibition of ALK (unknown origin) incubated for 1 hr and measured by mobility shift assay
Sequence of ALK tyrosine kinase receptor (Homo sapiens, UniProt Q9UM73) (Q9UM73 whole entry): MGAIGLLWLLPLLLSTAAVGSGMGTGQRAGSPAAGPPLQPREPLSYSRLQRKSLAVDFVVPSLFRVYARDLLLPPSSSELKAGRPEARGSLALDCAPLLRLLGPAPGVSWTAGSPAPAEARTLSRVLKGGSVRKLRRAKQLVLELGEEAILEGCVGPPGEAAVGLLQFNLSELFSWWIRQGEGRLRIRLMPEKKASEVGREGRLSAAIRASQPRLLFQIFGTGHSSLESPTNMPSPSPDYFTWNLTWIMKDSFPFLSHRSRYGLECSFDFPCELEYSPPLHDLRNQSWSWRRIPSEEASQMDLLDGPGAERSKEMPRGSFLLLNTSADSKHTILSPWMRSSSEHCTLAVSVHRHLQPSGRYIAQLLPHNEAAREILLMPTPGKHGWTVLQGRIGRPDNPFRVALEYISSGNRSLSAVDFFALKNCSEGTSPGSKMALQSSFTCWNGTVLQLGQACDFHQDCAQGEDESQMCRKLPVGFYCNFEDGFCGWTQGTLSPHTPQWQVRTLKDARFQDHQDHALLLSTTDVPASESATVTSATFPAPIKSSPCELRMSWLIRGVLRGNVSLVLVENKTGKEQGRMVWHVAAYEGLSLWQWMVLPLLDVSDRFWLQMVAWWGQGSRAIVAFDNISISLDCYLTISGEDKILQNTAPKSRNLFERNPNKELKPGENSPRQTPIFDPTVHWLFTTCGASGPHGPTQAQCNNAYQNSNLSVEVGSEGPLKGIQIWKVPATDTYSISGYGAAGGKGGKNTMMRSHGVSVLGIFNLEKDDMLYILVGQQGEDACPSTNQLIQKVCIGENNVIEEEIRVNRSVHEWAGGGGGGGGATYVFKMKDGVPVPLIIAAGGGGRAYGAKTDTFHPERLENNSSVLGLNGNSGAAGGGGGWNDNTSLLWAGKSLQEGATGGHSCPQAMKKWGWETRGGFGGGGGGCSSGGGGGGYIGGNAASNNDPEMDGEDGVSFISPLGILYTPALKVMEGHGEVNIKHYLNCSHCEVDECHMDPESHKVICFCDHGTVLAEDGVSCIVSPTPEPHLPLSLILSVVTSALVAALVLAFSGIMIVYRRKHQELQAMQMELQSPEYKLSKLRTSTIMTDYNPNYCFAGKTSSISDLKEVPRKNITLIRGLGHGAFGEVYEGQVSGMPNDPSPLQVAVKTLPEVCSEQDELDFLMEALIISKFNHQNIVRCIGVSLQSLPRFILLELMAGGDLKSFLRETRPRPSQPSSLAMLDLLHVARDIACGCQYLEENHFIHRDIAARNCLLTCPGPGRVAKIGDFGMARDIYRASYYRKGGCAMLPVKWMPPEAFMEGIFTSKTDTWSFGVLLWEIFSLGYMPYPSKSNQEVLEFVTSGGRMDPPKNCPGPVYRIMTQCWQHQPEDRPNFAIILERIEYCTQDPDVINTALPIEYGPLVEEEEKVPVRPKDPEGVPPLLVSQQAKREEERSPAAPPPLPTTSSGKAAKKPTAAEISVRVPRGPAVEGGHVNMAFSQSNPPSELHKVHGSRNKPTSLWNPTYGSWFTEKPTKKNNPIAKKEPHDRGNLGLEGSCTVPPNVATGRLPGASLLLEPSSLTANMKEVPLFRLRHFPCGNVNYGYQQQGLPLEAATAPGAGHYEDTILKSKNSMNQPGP

[2] = target: ALK tyrosine kinase receptor (Homo sapiens, UniProt Q9UM73, L1196M); assay: Inhibition of ALK L1196M mutant (unknown origin) incubated for 1 hr and measured by mobility shift assay
Sequence of ALK tyrosine kinase receptor (Homo sapiens, UniProt Q9UM73, L1196M) (Q9UM73 19-1620 L1196M limits assumed): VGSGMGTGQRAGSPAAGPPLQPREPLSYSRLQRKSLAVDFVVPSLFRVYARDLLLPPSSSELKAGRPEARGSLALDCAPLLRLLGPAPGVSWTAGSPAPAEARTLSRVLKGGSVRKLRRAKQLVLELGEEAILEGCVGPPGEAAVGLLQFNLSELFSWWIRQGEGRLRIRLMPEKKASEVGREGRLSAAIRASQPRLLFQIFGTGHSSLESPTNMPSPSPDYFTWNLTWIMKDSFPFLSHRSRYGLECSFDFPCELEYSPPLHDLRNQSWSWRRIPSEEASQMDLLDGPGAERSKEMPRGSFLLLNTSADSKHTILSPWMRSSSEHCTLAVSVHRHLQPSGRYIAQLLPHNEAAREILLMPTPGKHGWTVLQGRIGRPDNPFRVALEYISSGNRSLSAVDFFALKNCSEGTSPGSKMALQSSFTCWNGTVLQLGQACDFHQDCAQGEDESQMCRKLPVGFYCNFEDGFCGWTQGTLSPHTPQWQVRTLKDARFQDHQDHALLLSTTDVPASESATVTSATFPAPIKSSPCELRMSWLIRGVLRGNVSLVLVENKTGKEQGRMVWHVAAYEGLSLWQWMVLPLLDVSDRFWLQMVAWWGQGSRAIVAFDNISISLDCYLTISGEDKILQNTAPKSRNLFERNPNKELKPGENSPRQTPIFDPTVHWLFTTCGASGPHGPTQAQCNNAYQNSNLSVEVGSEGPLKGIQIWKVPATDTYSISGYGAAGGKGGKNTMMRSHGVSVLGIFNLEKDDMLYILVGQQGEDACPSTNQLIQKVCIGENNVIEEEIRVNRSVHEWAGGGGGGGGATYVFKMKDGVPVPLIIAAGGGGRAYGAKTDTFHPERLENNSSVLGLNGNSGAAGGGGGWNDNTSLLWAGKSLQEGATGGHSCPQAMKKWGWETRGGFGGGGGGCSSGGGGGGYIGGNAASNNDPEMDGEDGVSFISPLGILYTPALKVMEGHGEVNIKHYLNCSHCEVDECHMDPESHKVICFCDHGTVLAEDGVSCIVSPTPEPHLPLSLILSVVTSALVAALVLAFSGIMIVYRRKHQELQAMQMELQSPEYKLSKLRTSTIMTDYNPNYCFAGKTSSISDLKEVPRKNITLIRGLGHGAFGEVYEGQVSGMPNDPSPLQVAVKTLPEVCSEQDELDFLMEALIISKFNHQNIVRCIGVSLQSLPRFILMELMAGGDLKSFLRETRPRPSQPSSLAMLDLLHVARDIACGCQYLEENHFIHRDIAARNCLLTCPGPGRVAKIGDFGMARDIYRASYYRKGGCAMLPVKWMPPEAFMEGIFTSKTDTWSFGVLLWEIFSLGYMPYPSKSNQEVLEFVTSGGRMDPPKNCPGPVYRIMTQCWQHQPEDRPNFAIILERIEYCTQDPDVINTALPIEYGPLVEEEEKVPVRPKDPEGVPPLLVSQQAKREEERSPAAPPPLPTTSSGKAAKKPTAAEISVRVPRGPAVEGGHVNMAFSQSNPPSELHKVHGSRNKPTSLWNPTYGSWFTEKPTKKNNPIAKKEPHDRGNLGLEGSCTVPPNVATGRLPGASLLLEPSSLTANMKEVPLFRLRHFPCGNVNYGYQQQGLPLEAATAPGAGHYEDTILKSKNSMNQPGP

[3] = target: ALK tyrosine kinase receptor (Homo sapiens, UniProt Q9UM73, G1202R); assay: Inhibition of ALK G1202R mutant (unknown origin) incubated for 1 hr and measured by mobility shift assay
Sequence of ALK tyrosine kinase receptor (Homo sapiens, UniProt Q9UM73, G1202R) (Q9UM73 19-1620 G1202R limits assumed): as the sequence (Q9UM73 19-1620 L1196M limits assumed) above, with M1178L, G1184R counted along it

[4] = target: Epidermal growth factor receptor (Homo sapiens, UniProt P00533); assay: Inhibition of EGFR (unknown origin) incubated for 1 hr and measured by mobility shift assay
Sequence of Epidermal growth factor receptor (P00533 whole entry): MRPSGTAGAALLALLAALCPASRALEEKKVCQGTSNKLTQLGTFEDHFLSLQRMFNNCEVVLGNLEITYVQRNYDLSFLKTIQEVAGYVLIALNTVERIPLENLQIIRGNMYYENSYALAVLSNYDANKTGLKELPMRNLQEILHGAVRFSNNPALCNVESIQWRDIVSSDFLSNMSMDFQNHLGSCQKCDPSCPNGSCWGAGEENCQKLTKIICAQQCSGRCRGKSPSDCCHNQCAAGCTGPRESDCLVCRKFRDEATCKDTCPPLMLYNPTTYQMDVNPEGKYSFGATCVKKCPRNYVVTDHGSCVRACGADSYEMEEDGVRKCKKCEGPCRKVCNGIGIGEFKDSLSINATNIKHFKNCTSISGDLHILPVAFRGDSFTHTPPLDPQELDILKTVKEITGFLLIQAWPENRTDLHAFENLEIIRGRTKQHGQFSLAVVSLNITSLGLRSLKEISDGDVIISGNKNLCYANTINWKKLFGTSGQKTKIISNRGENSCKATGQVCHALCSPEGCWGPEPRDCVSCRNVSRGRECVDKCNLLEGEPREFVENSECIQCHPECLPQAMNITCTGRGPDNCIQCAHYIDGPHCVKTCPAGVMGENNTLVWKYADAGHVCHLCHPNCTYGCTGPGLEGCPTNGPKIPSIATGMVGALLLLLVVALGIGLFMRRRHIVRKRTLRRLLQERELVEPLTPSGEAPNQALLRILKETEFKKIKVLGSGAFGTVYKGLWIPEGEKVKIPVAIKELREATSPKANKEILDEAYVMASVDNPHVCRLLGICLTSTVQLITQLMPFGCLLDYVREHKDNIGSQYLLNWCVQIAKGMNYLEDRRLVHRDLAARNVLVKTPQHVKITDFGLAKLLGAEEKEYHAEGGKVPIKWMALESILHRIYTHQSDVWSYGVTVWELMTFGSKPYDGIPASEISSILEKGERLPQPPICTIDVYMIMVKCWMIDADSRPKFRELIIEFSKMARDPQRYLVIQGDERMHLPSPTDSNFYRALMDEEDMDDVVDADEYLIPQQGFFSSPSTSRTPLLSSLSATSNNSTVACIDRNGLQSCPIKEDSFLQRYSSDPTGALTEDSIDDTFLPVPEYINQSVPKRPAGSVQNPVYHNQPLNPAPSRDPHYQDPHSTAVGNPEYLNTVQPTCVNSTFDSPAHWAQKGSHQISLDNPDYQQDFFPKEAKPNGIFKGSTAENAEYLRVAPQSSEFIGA

NCI-H460 = assay: Antiproliferative activity against human NCI-H460 cells incubated for 72 hrs and measured by CCK-8 assay; format: functional, cell-based; conditions: NCI-H460, 72 h
NCI-H1581 = assay: Antiproliferative activity against human NCI-H1581 cells incubated for 72 hrs and measured by CCK-8 assay; format: functional, cell-based; conditions: NCI-H1581, 72 h
MCF7 = assay: Antiproliferative activity against human MCF7 cells incubated for 72 hrs and measured by CCK-8 assay; format: functional, cell-based; conditions: MCF7, 72 h
HCT-116 = assay: Antiproliferative activity against human HCT-116 cells incubated for 72 hrs and measured by CCK-8 assay; format: functional, cell-based; conditions: HCT-116, 72 h
PC-3 = assay: Antiproliferative activity against human PC-3 cells incubated for 72 hrs and measured by CCK-8 assay; format: functional, cell-based; conditions: PC-3, 72 h
[5] = Cytotoxicity against human HELF cells incubated for 72 hrs and measured by CCK-8 assay; format: toxicity, cell-based
NCI-H2228 [6] = assay: Antiproliferative activity against EML4-ALK-positive human NCI-H2228 cells incubated for 3 days at 25 to 100 nM and assessed as decrease in number of colonies by colony formation assay; format: functional, cell-based; conditions: dose 25-100 nM, time 3.0 day
NCI-H2228 [7] = assay: Inhibition of cell migration in EML4-ALK-positive human NCI-H2228 cells assessed as relative migration rate at 5 nM measured after 24 hrs by cell scratch assay (reference value: 21.4 %); format: functional; parameters: scale not given: the % may be the effect or the level left
NCI-H2228 [8] = assay: Inhibition of cell migration in EML4-ALK-positive human NCI-H2228 cells assessed as relative migration rate at 10 nM measured after 24 hrs by cell scratch assay (reference value: 21.4 %); format: functional; parameters: scale not given: the % may be the effect or the level left
NCI-H2228 [9] = assay: Inhibition of cell migration in EML4-ALK-positive human NCI-H2228 cells assessed as relative migration rate at 5 nM measured after 48 hrs by cell scratch assay (reference value: 35.99 %); format: functional; parameters: scale not given: the % may be the effect or the level left
NCI-H2228 [10] = assay: Inhibition of cell migration in EML4-ALK-positive human NCI-H2228 cells assessed as relative migration rate at 10 nM measured after 48 hrs by cell scratch assay (reference value: 35.99 %); format: functional; parameters: scale not given: the % may be the effect or the level left
NCI-H2228 [11] = assay: Induction of apoptosis in EML4-ALK-positive human NCI-H2228 cells assessed as increase in apoptotic cells at 100 to 200 nM measured after 48 hrs by AO/EB staining based inverted fluorescence microscopic analysis; format: functional, cell-based; conditions: dose 100-200 nM, DDE = dose-dependent effect
NCI-H2228 [12] = assay: Induction of apoptosis in EML4-ALK-positive human NCI-H2228 cells assessed as increase in apoptotic cells at 100 to 200 nM measured after 48 hrs by Hoechst 33342 staining based assay; format: functional, cell-based; conditions: dose 100-200 nM, DDE = dose-dependent effect
NCI-H2228 [13] = assay: Induction of apoptosis in EML4-ALK-positive human NCI-H2228 cells assessed as apoptotic rate at 100 nM measured after 48 hrs by annexin V-FITC/propidium iodide staining based flow cytometry (reference value: 6.6%); format: functional
NCI-H2228 [14] = assay: Induction of apoptosis in EML4-ALK-positive human NCI-H2228 cells assessed as apoptotic rate at 200 nM measured after 48 hrs by annexin V-FITC/propidium iodide staining based flow cytometry (reference value: 6.6%); format: functional
NCI-H2228 [15] = assay: Cell cycle arrest in EML4-ALK-positive human NCI-H2228 cells assessed as cells accumulation at G0/G1 phase at 25 nM (reference value: 53.24%); format: functional
NCI-H2228 [16] = assay: Cell cycle arrest in EML4-ALK-positive human NCI-H2228 cells assessed as cells accumulation at G2/M phase at 25 nM (reference value: 11.28%); format: functional
NCI-H2228 [17] = assay: Cell cycle arrest in EML4-ALK-positive human NCI-H2228 cells assessed as cells accumulation at S phase at 25 nM (reference value: 35.48%); format: functional
NCI-H2228 [18] = assay: Cell cycle arrest in EML4-ALK-positive human NCI-H2228 cells assessed as cells accumulation at G0/G1 phase at 50 nM (reference value: 53.24%); format: functional
NCI-H2228 [19] = assay: Cell cycle arrest in EML4-ALK-positive human NCI-H2228 cells assessed as cells accumulation at G2/M phase at 50 nM (reference value: 11.28%); format: functional
NCI-H2228 [20] = assay: Cell cycle arrest in EML4-ALK-positive human NCI-H2228 cells assessed as cells accumulation at S phase at 50 nM (reference value: 35.48%); format: functional
NCI-H2228 [21] = assay: Cell cycle arrest in EML4-ALK-positive human NCI-H2228 cells assessed as cells accumulation at G0/G1 phase at 100 nM (reference value: 53.24%); format: functional
NCI-H2228 [22] = assay: Cell cycle arrest in EML4-ALK-positive human NCI-H2228 cells assessed as cells accumulation at G2/M phase at 100 nM (reference value: 11.28%); format: functional
NCI-H2228 [23] = assay: Cell cycle arrest in EML4-ALK-positive human NCI-H2228 cells assessed as cells accumulation at S phase at 100 nM (reference value: 35.48%); format: functional
[24] = Metabolic stability in Sprague-Dawley rat liver microsomes assessed as half life at 10 uM preincubated for 5 mins followed by NADPH addition and measured upto 60 mins by HPLC analysis; format: ADME, Microsome
[25] = Intrinsic clearance in Sprague-Dawley rat liver microsomes at 10 uM preincubated for 5 mins followed by NADPH addition and measured upto 60 mins by HPLC analysis; format: ADME, Microsome; conditions: read-out: CLH
[26] = Intrinsic clearance in Sprague-Dawley rat liver at 10 uM preincubated for 5 mins followed by NADPH addition and measured upto 60 mins by HPLC analysis; format: ADME, tissue-based; conditions: read-out: CLH
[27] = Metabolic stability in Sprague-Dawley rat liver microsomes assessed as compound remaining at 10 uM preincubated for 5 mins followed by NADPH addition and measured upto 60 mins by HPLC analysis; format: ADME, Microsome; conditions: read-out: Stability
[28] = Metabolic stability in Sprague-Dawley rat liver microsomes assessed as compound remaining at 10 uM preincubated for 5 mins and measured upto 60 mins by HPLC analysis; format: ADME, Microsome; conditions: read-out: Stability
NCI-H2228 [29] = assay: Antitumor activity against EML4-ALK-positive human NCI-H2228 cells xenografted in female BALB/c nude mouse assessed as tumor growth inhibition at 50 mg/kg, IG administered every 2 days for 7 times; format: functional; conditions: NCI-H2228, po, 48 h, time 2 day, read-out: TGI
[30] = Toxicity in female BALB/c nude mouse xenografted with EML4-ALK-positive human NCI-H2228 cells assessed as body weight loss at 25 to 50 mg/kg, IG administered every 2 days for 7 times; format: organism-based; conditions: in vivo, po, 48 h, dose 25-50 mg/kg, time 2 day
NCI-H3122 = assay: cells; conditions: Homo sapiens, NCI-H3122, 72 h
Description: Antiproliferative activity against EML4-ALK-positive human NCI-H3122 cells incubated for 72 hrs and measured by CCK-8 assay

NCI-H2228 [31] = assay: cells; conditions: Homo sapiens, NCI-H2228, 72 h
Description: Antiproliferative activity against EML4-ALK-positive human NCI-H2228 cells incubated for 72 hrs and measured by CCK-8 assay

KARPAS-299 = assay: cells; conditions: Homo sapiens, KARPAS-299, 72 h
Description: Antiproliferative activity against NPM-ALK-positive human KARPAS-299 cells incubated for 72 hrs and measured by CCK-8 assay

A549 = assay: cells; conditions: Homo sapiens, A549, 72 h
Description: Antiproliferative activity against EGFR-positive human A549 cells incubated for 72 hrs and measured by CCK-8 assay

IC50 [1]: 1.6 nM
IC50 [2]: 0.71 nM
IC50 [3]: 1.3 nM
IC50 [4]: > 1000 nM
IC50 (NCI-H460): 8210 nM
IC50 (NCI-H1581): 1870 nM
IC50 (MCF7): 2220 nM
IC50 (HCT-116): 1560 nM
IC50 (PC-3): 1230 nM
half-life at 10 µM [24]: 16.3 min
microsomal CLint at 10 µM [25]: 84.9 µL/min/mg
CLint scaled at 10 µM [26]: 153 mL/min/kg
remaining at 1 h, 10 µM [27]: 7.5%
remaining at 1 h, 10 µM [28]: 86.2%
IC50 (NCI-H3122): 12 nM
IC50 (NCI-H2228 [31]): 17 nM
IC50 (KARPAS-299): 15 nM
IC50 (A549): 1330 nM
SMILES: CC(C)S(=O)(=O)c1ccccc1Nc1nc(Nc2ccc3c(NC(=O)CN4CCCC4)n[nH]c3c2)ncc1Cl
IC50 at 72 h [5]: > 20000 nM
Activity (NCI-H2228 [6]): Active
Activity (NCI-H2228 [7]): 7.3%
Activity (NCI-H2228 [8]): 2.31%
Activity (NCI-H2228 [9]): 17.02%
Activity (NCI-H2228 [10]): 5.01%
Activity (NCI-H2228 [11]): Dde
Activity (NCI-H2228 [12]): Dde
Activity (NCI-H2228 [13]): 18.83%
Activity (NCI-H2228 [14]): 23.28%
Activity (NCI-H2228 [15]): 45.1%
Activity (NCI-H2228 [16]): 45.5%
Activity (NCI-H2228 [17]): 9.4%
Activity (NCI-H2228 [18]): 31.29%
Activity (NCI-H2228 [19]): 61.31%
Activity (NCI-H2228 [20]): 7.4%
Activity (NCI-H2228 [21]): 26.77%
Activity (NCI-H2228 [22]): 73.23%
Activity (NCI-H2228 [23]): 0%
inhibition in vivo at 50 mg/kg (NCI-H2228 [29]): 70.5%
Activity [30]: Non-Toxic
